Assay results taken from patent publication US7868172B2, “2-(hetero)-aryl substituted tetrahydroquinoline derivatives” (Merck Patent GmbH, priority 2003, dated 2011).
Where “and” joins values, the source holds several entries; their conditions need not be identical. Equal entries are not always repeated.

Experiments:
[1] = tested on: HCT116 cells; test: Cell cycle analysis, propidium iodide FACS (DNA content); assay type: cell-based; conditions: for percentage of cells in the G0/G1 phase (G1) / percentage of cells in the G2/M phase / percentage of cells in the S phase: HCT116, 24 hrs
Experimental: Monasterol and pentamidine in individual experiments: • HCT116 cells were treated with the given concentrations of the compounds for 24 hrs, processed for the propidium iodide analysis with a BD-FACS scan in order to determine the DNA content of the treated cell populations. The percentage of cells in the G0/G1 phase (unreplicated DNA), S phase (DNA replication phase) and G2/M phase (duplicated DNA before mitosis) is shown. 10,000 events were counted for each concentration. Striking changes in the G2/M enrichment have been highlighted.

[2] = tested on: colon carcinoma cell line HCT116; test: Assay II: combination cell proliferation test, Crystal Violet staining; assay type: cell-based; conditions: for -fold inhibition of proliferation / OD550 nm background corrected / % of control: 48 hrs
Experimental: The combination of the antiprotozoic pentamidine and the inhibitors of kinesin ATPase Eg5/KSP results in increased inhibitory effects in cell proliferation tests with the colon carcinoma cell line HCT116.
10^3 to 10^4 cells of a defined cell line (HCT116, Colo 205, MDA-MB 231, etc.) are sown into each well of a 96-well microtitre plate and cultivated overnight under standard conditions. For the substances of the combination to be tested, 10-50 mM stock solutions in DMSO were prepared. Dilution series (generally 3-fold dilution steps) of the individual substances were combined with one another in the form of a pipetting scheme (see scheme below), while maintaining a DMSO final concentration of 0.5% (v/v). Next morning, the substance mixtures were added to the cells, which were incubated under culture conditions for a further 48 hours. At the end of the cultivation, Crystal Violet staining of the cells was carried out. After extraction of the Crystal Violet from the fixed cells, the absorption at 550 nm was measured spectrophotometrically. It can be used as a quantitative measure of the adherent cells present.
HCT116 cells were incubated overnight at 37° C. in 96-well plates at a density of 2500 or 5000 cells/well. On the following day, a concentration matrix of pentamidine and the compounds indicated was added, and the cells were incubated for a further 48 hrs. The cells were then stained with Crystal Violet, and the absorption was measured after extraction of the dye. The absorption value reflects the number of cells in the well.
Results: Upper matrix: OD550 nm background corrected Central matrix: % of control (the 100% value stands for vehicle-treated cells minus background signal) Lower field: -fold inhibition values (i.e. the 100%/x % value stands for a-fold inhibition of proliferation).

[3] = monastrol 6.125 μM, pentamidine 0 μM
[4] = monastrol 12.5 μM, pentamidine 0 μM
[5] = monastrol 25 μM, pentamidine 0 μM
[6] = monastrol 50 μM, pentamidine 0 μM

In the case of CC(C)(C)c1ccc2c(c1)[C@H]1OCCC[C@H]1[C@H](c1ccsc1)N2 [Example I12], the “percentage of cells in the G0/G1 phase (G1)” value (shortened to “percentage of cells … (G1)”) ([1]; 0.0032 μM) is reported as 36%, the “percentage of cells in the G2/M phase” value ([1]; 0.0032 μM) is reported as 21% and the “percentage of cells in the S phase” value ([1]; 0.0032 μM) is reported as 44%. The “percentage of cells … (G1)” value ([1]; 0.016 μM) was 36%, the “percentage of cells in the G2/M phase” value ([1]; 0.016 μM) was 21% and the “percentage of cells in the S phase” value ([1]; 0.016 μM) was 43%. The “percentage of cells … (G1)” value ([1]; 0.08 μM) was 35%, the “percentage of cells in the G2/M phase” value ([1]; 0.08 μM) was 23% and the “percentage of cells in the S phase” value ([1]; 0.08 μM) was 42%. The “percentage of cells … (G1)” value ([1]; 0.4 μM) was 7%, the “percentage of cells in the G2/M phase” value ([1]; 0.4 μM) was 86% and the “percentage of cells in the S phase” value ([1]; 0.4 μM) was 7%. The “percentage of cells … (G1)” value ([1]; 2 μM) was 0%, the “percentage of cells in the G2/M phase” value ([1]; 2 μM) was 85% and the “percentage of cells in the S phase” value ([1]; 2 μM) was 15%. The activity at 0.025 µM ([2]; Homo sapiens, HCT-116, 48 h, I12 0.025 μM, pentamidine 0 μM, read-out: % of control) was 91%, the activity at 0.05 µM ([2]; Homo sapiens, HCT-116, 48 h, I12 0.05 μM, pentamidine 0 μM, read-out: % of control) was 98% and the activity at 0.1 µM ([2]; Homo sapiens, HCT-116, 48 h, I12 0.1 μM, pentamidine 0 μM, read-out: % of control) was 90%. For the same compound, the activity at 0.2 µM ([2]; Homo sapiens, HCT-116, 48 h, I12 0.2 μM, pentamidine 0 μM, read-out: % of control) was 90%, the activity at 0.4 µM ([2]; Homo sapiens, HCT-116, 48 h, I12 0.4 μM, pentamidine 0 μM, read-out: % of control) was 31% and the “-fold inhibition of proliferation” value ([2]; I12 0.025 μM, pentamidine 0 μM) was 1 fold. For the same compound, the “OD550 nm background corrected” value ([2]; I12 0.025 μM, pentamidine 0 μM) was 1.1, the “-fold inhibition of proliferation” value ([2]; I12 0.05 μM, pentamidine 0 μM) was 1 fold and the “OD550 nm background corrected” value ([2]; I12 0.05 μM, pentamidine 0 μM) was 1.2. The “-fold inhibition of proliferation” value ([2]; I12 0.1 μM, pentamidine 0 μM) was 1 fold, the “OD550 nm background corrected” value ([2]; I12 0.1 μM, pentamidine 0 μM) was 1.1 and the “-fold inhibition of proliferation” value ([2]; I12 0.2 μM, pentamidine 0 μM) was 1 fold. The “OD550 nm background corrected” value ([2]; I12 0.2 μM, pentamidine 0 μM) was 1.1, the “-fold inhibition of proliferation” value ([2]; I12 0.4 μM, pentamidine 0 μM) was 3 fold and the “OD550 nm background corrected” value ([2]; I12 0.4 μM, pentamidine 0 μM) was 0.4.

For CCOC(=O)C1=C(C)NC(=S)NC1c1cccc(O)c1 (stereo not drawn) [Monastrol], the “percentage of cells … (G1)” value ([1]; 0.08 μM) was 35%, the “percentage of cells in the G2/M phase” value ([1]; 0.08 μM) was 25% and the “percentage of cells in the S phase” value ([1]; 0.08 μM) was 39%. For the same compound, the “percentage of cells … (G1)” value ([1]; 0.4 μM) was 34%, the “percentage of cells in the G2/M phase” value ([1]; 0.4 μM) was 28% and the “percentage of cells in the S phase” value ([1]; 0.4 μM) was 38%. The “percentage of cells … (G1)” value ([1]; 2 μM) was 33%, the “percentage of cells in the G2/M phase” value ([1]; 2 μM) was 25% and the “percentage of cells in the S phase” value ([1]; 2 μM) was 42%. The “percentage of cells … (G1)” value ([1]; 10 μM) was 34%, the “percentage of cells in the G2/M phase” value ([1]; 10 μM) was 27% and the “percentage of cells in the S phase” value ([1]; 10 μM) was 39%. For the same compound, the “percentage of cells … (G1)” value ([1]; 50 μM) was 14%, the “percentage of cells in the G2/M phase” value ([1]; 50 μM) was 52% and the “percentage of cells in the S phase” value ([1]; 50 μM) was 33%. The activity at 6.125 µM ([2]; Homo sapiens, HCT-116, 48 h, monastrol 6.125 μM, pentamidine 0 μM, read-out: % of control) was 84%, the activity at 12.5 µM ([2]; Homo sapiens, HCT-116, 48 h, monastrol 12.5 μM, pentamidine 0 μM, read-out: % of control) was 62% and the activity at 25 µM ([2]; Homo sapiens, HCT-116, 48 h, monastrol 25 μM, pentamidine 0 μM, read-out: % of control) was 53%. For the same compound, the activity at 50 µM ([2]; Homo sapiens, HCT-116, 48 h, monastrol 50 μM, pentamidine 0 μM, read-out: % of control) was 17%, the “-fold inhibition of proliferation” value [2, 3] was 1 fold and the “OD550 nm background corrected” value [2, 3] was 0.68. For the same compound, the “-fold inhibition of proliferation” value [2, 4] was 2 fold, the “OD550 nm background corrected” value [2, 4] was 0.51 and the “-fold inhibition of proliferation” value [2, 5] was 2 fold. For the same compound, the “OD550 nm background corrected” value [2, 5] was 0.43, the “-fold inhibition of proliferation” value [2, 6] was 6 fold and the “OD550 nm background corrected” value [2, 6] was 0.14.

For N=C(N)c1ccc(OCCCCCOc2ccc(C(=N)N)cc2)cc1.O=S(=O)(O)CCO.O=S(=O)(O)CCO [Pentamidine Isothionate], the “percentage of cells … (G1)” value ([1]; 0.016 μM) was 36%, the “percentage of cells in the G2/M phase” value ([1]; 0.016 μM) was 22% and the “percentage of cells in the S phase” value ([1]; 0.016 μM) was 42%. The “percentage of cells … (G1)” value ([1]; 0.08 μM) was 35%, the “percentage of cells in the G2/M phase” value ([1]; 0.08 μM) was 21% and the “percentage of cells in the S phase” value ([1]; 0.08 μM) was 44%. For the same compound, the “percentage of cells … (G1)” value ([1]; 0.4 μM) was 33%, the “percentage of cells in the G2/M phase” value ([1]; 0.4 μM) was 22% and the “percentage of cells in the S phase” value ([1]; 0.4 μM) was 45%. The “percentage of cells … (G1)” value ([1]; 2 μM) was 32%, the “percentage of cells in the G2/M phase” value ([1]; 2 μM) was 24% and the “percentage of cells in the S phase” value ([1]; 2 μM) was 44%. For the same compound, the “percentage of cells … (G1)” value ([1]; 10 μM) was 32%, the “percentage of cells in the G2/M phase” value ([1]; 10 μM) was 32% and the “percentage of cells in the S phase” value ([1]; 10 μM) was 32%.

N=C(N)c1ccc(OCCCCCOc2ccc(C(=N)N)cc2)cc1 [Pentamidine, pentamidine] was tested, and the “effect on the cell cycle (in words)” value [1] was “maintain cells in the G2/M cell cycle”, the activity at 4 µM ([2]; Homo sapiens, HCT-116, 48 h, pentamidine 4 μM alone, read-out: % of control) was 85% and the activity at 8 µM ([2]; Homo sapiens, HCT-116, 48 h, pentamidine 8 μM alone, read-out: % of control) was 50%. For the same compound, the activity at 16 µM ([2]; Homo sapiens, HCT-116, 48 h, pentamidine 16 μM alone, read-out: % of control) was 30%, the activity at 32 µM ([2]; Homo sapiens, HCT-116, 48 h, pentamidine 32 μM alone, read-out: % of control) was 20% and the “% of control” value ([2]; pentamidine 2 μM alone) was 86% and 124%. For the same compound, the “-fold inhibition of proliferation” value ([2]; pentamidine 2 μM alone) was 1 fold, the “OD550 nm background corrected” value ([2]; pentamidine 2 μM alone) was 1.0 and 1.01 and the “% of control” value ([2]; pentamidine 4 μM alone) was 101%. For the same compound, the “-fold inhibition of proliferation” value ([2]; pentamidine 4 μM alone) was 1 fold, the “OD550 nm background corrected” value ([2]; pentamidine 4 μM alone) was 1.0 and 0.82 and the “% of control” value ([2]; pentamidine 8 μM alone) was 55%. The “-fold inhibition of proliferation” value ([2]; pentamidine 8 μM alone) was 2 fold, the “OD550 nm background corrected” value ([2]; pentamidine 8 μM alone) was 0.6 and 0.45 and the “% of control” value ([2]; pentamidine 16 μM alone) was 18%. The “-fold inhibition of proliferation” value ([2]; pentamidine 16 μM alone) was 3 fold and 6 fold, the “-fold inhibition of proliferation” value ([2]; pentamidine 32 μM alone) was 5 fold and the “OD550 nm background corrected” value ([2]; pentamidine 32 μM alone) was 0.2.
